Like-named read-outs stand apart in the source and are kept apart here.
Tests used:
K-562 = experiment: Inhibition of cells growth by colorimetric assay (SRB); details: Homo sapiens, K562, 48 h
In short: (§1)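 Colorimetric SRB read (490 nm) on triplicate wells after 48 h at 37 °C, 5% CO2. Dose range 10 to 10^−8 μg/ml; 5×10^3 cells/well pre-attached 18 h.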

IGROV-1 = experiment: as above; details: Homo sapiens, IGROV-1, 48 h
In short: as §1

HMEC1 = experiment: as above; details: for GI50: Homo sapiens, HMEC-1, 48 h
In short: as §1

SK-BR-3 = experiment: as above; details: Homo sapiens, SK-BR-3, 48 h
In short: as §1

DU-145 = experiment: as above; details: Homo sapiens, DU-145, 48 h
In short: as §1

PANC-1 = experiment: as above; details: Homo sapiens, PANC-1, 48 h
In short: as §1

SK-OV-3 = experiment: as above
In short: as §1

SK-MEL-28 = experiment: as above; details: Homo sapiens, SK-MEL-28, 48 h
In short: as §1

LNCaP = experiment: as above; details: Homo sapiens, LNCaP, 48 h
In short: as §1

IGROV-ET = experiment: as above; details: Homo sapiens, 48 h
In short: as §1

LoVo-Dox = experiment: as above; details: Homo sapiens, 48 h
In short: as §1

HT-29 = experiment: cells; details: Homo sapiens, HT-29, 48 h
In short: as §1

LoVo = experiment: cells; details: Homo sapiens, LoVo, 48 h
In short: as §1

A-549 = experiment: cells; details: Homo sapiens, A549, 48 h
In short: as §1

[1] = Inhibition of cells growth by colorimetric assay (SRB); details: human
In short: as §1

[2] = H-MEC-1, SRB, 48 hours exposure

COc1cc2c(cc1O)CCN[C@]21CS[C@@H]2c3c(OC(C)=O)c(C)c4c(c3[C@H](COC1=O)N1[C@@H]2[C@H]2c3c(cc(C)c(OC)c3O)C[C@@H]([C@@H]1O)N2C)OCO4 [Et-743, ecteinascidin 743, reference compound]
GI50 (K-562; read-out: K562 GI50): 0.000347 µM
CC50 (K-562; read-out: K562 LC50): 0.00106 µM
IC (TGI) (K-562; read-out: K562 TGI): 0.000605 µM
GI50 (IGROV-1; read-out: IGROV GI50): 0.000579 µM
CC50 (IGROV-1; read-out: IGROV LC50): 0.0103 µM
IC (TGI) (IGROV-1; read-out: IGROV TGI): 0.0026 µM
H-MEC-1 TGI (HMEC1; [2]): 6.88E−08 Molar
GI50 (HMEC1; read-out: H-MEC-1 GI50): 0.00903 µM
GI50 (SK-BR-3; read-out: SK-BR3 GI50): 0.000479 µM
CC50 (SK-BR-3; read-out: SK-BR3 LC50): 0.00857 µM
IC (TGI) (SK-BR-3; read-out: SK-BR3 TGI): 0.00172 µM
GI50 (DU-145; read-out: DU145 GI50): 0.000618 µM
CC50 (DU-145; read-out: DU145 LC50): 4.33 µM
IC (TGI) (DU-145; read-out: DU145 TGI): 0.00129 µM
GI50 (PANC-1; read-out: PANC-1 GI50): 0.00159 µM
CC50 (PANC-1; read-out: PANC-1 LC50): 0.0399 µM
IC (TGI) (PANC-1; read-out: PANC-1 TGI): 0.00634 µM
GI50 (SK-OV-3; Homo sapiens, SK-OV-3, 48 h, read-out: SK-OV3 GI50): 0.00131 µM
SK-OV3 TGI (SK-OV-3; SK-OV3, SRB, 48 hours exposure): 1.30E−08 Molar
GI50 (SK-MEL-28; read-out: MEL-28 GI50): 0.000742 µM
CC50 (SK-MEL-28; read-out: MEL-28 LC50): 0.0112 µM
IC (TGI) (SK-MEL-28; read-out: MEL-28 TGI): 0.00306 µM
GI50 (LNCaP; read-out: LNCAP GI50): 0.00023 µM
CC50 (LNCaP; read-out: LNCAP LC50): 0.00122 µM
IC (TGI) (LNCaP; read-out: LNCAP TGI): 0.000529 µM
GI50 (IGROV-ET; read-out: IGROV-ET GI50): 0.00429 µM
CC50 (IGROV-ET; read-out: IGROV-ET LC50): 0.0186 µM
IC (TGI) (IGROV-ET; read-out: IGROV-ET TGI): 0.00786 µM
GI50 (LoVo-Dox; read-out: LOVO-DOX GI50): 0.0295 µM
IC (TGI) (LoVo-Dox; read-out: LOVO-DOX TGI): 0.11 µM
GI50 (HT-29; read-out: HT29 GI50): 0.00341 µM
CC50 (HT-29; read-out: HT29 LC50): 13.1 µM
IC (TGI) (HT-29; read-out: HT29 TGI): 0.0111 µM
GI50 (LoVo; read-out: LOVO GI50): 0.00156 µM
CC50 (LoVo; read-out: LOVO LC50): 0.0114 µM
IC (TGI) (LoVo; read-out: LOVO TGI): 0.00423 µM
GI50 (A-549; read-out: A549 GI50): 0.00252 µM
CC50 (A-549; read-out: A549 LC50): 0.0121 µM
IC (TGI) (A-549; read-out: A549 TGI): 0.00551 µM

C=CCN1[C@@H]2c3c(cc(C)c(OC)c3OCOCCOC)C[C@H]1[C@H](C#N)N1C2CC2(O)C(=O)C(C)=C3OCOC3=C2[C@@H]1COC(=O)[C@H](CSCC1c2ccccc2-c2ccccc21)NC(=O)OC(C)(C)C (stereo partly drawn) [compound 10]
TGI H-MEC-1 (HMEC1; [2]): 4.06E−06 Molar
GI50 (HMEC1; read-out: GI50 H-MEC-1): 2.15 µM
CC50 at 48 h [1]: 7.63 µM
GI50 (HT-29; read-out: GI50 HT29): 1010 µM
CC50 (HT-29; read-out: LC50 HT29): 1010 µM
IC (TGI) (HT-29; read-out: TGI HT29): 1010 µM
GI50 (A-549; read-out: GI50 A549): 1010 µM
CC50 (A-549; read-out: LC50 A549): 1010 µM
IC (TGI) (A-549; read-out: TGI A549): 1010 µM

C=CCN1[C@@H]2c3c(cc(C)c(OC)c3O)C[C@H]1[C@H](C#N)N1C2[C@@H]2SCC(=O)C(=O)OC[C@H]1c1c3c(c(C)c(OC(C)=O)c12)OCO3 (stereo partly drawn) [compound 13]
TGI H-MEC-1 (HMEC1; [2]): 1.54E−05 Molar
GI50 (HMEC1; read-out: GI50 H-MEC-1): 4.74 µM
CC50 at 48 h [1]: 15.4 µM
GI50 (HT-29; read-out: GI50 HT29): 6.02 µM
CC50 (HT-29; read-out: LC50 HT29): 15.4 µM
IC (TGI) (HT-29; read-out: TGI HT29): 15.4 µM
GI50 (A-549; read-out: GI50 A549): 3.94 µM
CC50 (A-549; read-out: LC50 A549): 13.7 µM
IC (TGI) (A-549; read-out: TGI A549): 7.36 µM

C=CCN1[C@@H]2c3c(cc(C)c(OC)c3O)C[C@H]1[C@H](C#N)N1C2[C@@H]2SC[C@]3(NCCc4cc(O)c(OC)cc43)C(=O)OC[C@H]1c1c3c(c(C)c(OC(C)=O)c12)OCO3 (stereo partly drawn) [compound 14]
TGI H-MEC-1 (HMEC1; [2]): 1.25E−05 Molar
GI50 (HMEC1; read-out: GI50 H-MEC-1): 3 µM
CC50 at 48 h [1]: 12.5 µM
GI50 (HT-29; read-out: GI50 HT29): 1.77 µM
CC50 (HT-29; read-out: LC50 HT29): 12.5 µM
IC (TGI) (HT-29; read-out: TGI HT29): 6.39 µM
GI50 (A-549; read-out: GI50 A549): 2.23 µM
CC50 (A-549; read-out: LC50 A549): 11.7 µM
IC (TGI) (A-549; read-out: TGI A549): 5.11 µM

Reference: US7767659B2, “Synthesis of naturally occurring ecteinascidins and related compounds” (Pharma Mar, S.A., priority 2002, dated 2010)
